{"source": "paper PMC4769319", "about": "“Cohesin Releases DNA through Asymmetric ATPase-Driven Ring Opening” (Molecular Cell, 2016)", "biological_target": "T1, Smc1/Smc3 heterodimer with Scc1-C (cohesin) (Saccharomyces cerevisiae, UniProt P32908+P47037, P32908:L1129V, form not given)", "T1 construct": "N-terminal tags; Sf9 insect cells; fluorescently labelled for MST; with Sister chromatid cohesion protein 1", "T1 sequence (P32908 1-1225 L1129V)": "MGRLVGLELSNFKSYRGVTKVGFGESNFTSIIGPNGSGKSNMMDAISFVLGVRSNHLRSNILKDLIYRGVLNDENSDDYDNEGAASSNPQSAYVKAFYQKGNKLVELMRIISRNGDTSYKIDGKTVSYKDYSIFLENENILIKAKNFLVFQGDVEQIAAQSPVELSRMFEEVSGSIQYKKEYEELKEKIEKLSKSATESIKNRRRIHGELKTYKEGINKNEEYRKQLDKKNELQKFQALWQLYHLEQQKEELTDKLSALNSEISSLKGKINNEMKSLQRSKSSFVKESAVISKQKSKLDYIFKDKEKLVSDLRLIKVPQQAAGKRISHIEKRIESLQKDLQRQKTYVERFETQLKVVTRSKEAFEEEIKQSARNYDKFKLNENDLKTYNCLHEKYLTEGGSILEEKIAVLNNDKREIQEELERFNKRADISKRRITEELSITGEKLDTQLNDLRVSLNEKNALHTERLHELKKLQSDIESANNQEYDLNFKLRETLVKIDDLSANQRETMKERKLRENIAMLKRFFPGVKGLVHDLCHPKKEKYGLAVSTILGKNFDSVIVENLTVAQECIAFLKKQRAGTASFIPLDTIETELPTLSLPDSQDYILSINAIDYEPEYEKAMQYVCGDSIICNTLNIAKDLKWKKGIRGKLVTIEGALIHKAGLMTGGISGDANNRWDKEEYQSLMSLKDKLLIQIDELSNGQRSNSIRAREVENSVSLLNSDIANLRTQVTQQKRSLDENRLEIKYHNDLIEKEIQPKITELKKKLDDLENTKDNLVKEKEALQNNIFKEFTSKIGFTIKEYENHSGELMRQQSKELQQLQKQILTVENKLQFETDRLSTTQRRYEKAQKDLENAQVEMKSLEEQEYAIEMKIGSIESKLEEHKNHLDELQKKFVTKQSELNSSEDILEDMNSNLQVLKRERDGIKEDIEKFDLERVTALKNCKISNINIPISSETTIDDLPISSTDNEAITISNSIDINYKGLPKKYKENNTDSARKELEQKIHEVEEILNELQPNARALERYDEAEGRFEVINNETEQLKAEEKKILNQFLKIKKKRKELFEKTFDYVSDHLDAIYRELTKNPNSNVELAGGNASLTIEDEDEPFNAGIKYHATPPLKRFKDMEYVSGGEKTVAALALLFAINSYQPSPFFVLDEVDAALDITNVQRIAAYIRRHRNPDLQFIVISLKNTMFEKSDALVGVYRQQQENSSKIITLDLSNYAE", "T1 sequence (P47037 1-1230)": "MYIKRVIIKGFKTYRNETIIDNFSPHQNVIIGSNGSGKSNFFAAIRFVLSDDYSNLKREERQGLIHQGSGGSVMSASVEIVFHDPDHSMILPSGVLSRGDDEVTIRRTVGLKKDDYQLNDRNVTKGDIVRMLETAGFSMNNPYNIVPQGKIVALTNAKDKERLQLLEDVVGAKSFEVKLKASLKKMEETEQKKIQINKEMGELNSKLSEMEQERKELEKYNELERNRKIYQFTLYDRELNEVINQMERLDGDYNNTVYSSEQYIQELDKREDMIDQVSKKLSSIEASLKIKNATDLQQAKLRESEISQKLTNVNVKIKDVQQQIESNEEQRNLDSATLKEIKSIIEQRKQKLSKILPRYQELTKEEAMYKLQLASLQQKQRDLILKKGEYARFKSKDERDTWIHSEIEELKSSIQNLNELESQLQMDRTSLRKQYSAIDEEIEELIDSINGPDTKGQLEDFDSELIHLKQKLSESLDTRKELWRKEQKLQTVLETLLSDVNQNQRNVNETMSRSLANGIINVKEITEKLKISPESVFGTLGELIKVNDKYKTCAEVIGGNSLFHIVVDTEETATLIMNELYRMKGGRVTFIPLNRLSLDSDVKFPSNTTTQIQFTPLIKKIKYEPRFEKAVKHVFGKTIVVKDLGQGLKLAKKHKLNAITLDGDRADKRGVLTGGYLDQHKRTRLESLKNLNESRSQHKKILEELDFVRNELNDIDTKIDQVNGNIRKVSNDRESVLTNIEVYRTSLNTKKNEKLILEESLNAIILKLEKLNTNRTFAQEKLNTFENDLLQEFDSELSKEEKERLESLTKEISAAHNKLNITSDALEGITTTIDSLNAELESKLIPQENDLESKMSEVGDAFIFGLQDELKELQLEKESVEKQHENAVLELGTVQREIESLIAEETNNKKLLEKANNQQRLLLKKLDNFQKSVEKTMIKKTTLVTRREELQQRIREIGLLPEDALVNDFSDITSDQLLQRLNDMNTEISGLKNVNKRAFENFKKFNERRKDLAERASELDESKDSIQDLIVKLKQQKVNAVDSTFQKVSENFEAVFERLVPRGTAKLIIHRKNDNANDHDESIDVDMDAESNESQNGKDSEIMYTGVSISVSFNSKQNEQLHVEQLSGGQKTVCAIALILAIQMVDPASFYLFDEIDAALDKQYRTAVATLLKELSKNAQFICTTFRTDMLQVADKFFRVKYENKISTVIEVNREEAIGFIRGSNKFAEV", "T1 sequence (Q12158 1-566 partner)": "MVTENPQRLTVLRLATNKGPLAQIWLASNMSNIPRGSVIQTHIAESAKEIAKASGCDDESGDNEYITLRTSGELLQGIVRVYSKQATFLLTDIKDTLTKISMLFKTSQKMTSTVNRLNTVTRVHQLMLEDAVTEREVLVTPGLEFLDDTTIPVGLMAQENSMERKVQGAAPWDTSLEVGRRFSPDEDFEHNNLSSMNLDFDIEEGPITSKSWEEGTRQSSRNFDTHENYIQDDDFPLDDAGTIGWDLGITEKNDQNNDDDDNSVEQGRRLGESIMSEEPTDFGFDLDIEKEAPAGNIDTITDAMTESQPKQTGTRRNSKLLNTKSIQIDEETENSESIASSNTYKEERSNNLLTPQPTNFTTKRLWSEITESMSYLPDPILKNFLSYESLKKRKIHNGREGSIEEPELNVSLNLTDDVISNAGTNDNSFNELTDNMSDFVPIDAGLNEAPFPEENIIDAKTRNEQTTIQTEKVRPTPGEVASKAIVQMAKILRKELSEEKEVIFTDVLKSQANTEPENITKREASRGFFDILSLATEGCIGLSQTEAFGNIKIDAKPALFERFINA", "test": "microscale thermophoresis", "assay_type": "binding", "conditions": "fluorescently labelled protein; Smc1 co-purified with Scc1-C, plus Smc3; read-out: affinity", "text": "microscale thermophoresis on Smc1/Smc3 heterodimer with Scc1-C (cohesin) | Smc1 L1129V, D1164E and E1158Q mutants all had wild-type-like affinity to both ATP and ADP | wild-type and mutant cohesin complexes appear to have similar affinities to ADP"}
{"smiles": "Nc1ncnc2c1ncn2[C@@H]1O[C@H](COP(=O)(O)OP(=O)(O)O)[C@@H](O)[C@H]1O", "note": "[ADP]", "values": [{"measurement": "Kd", "result": "> 1000", "unit": "µM"}]}
{"smiles": "Nc1ncnc2c1ncn2[C@@H]1O[C@H](COP(=O)(O)OP(=O)(O)OP(=O)(O)O)[C@@H](O)[C@H]1O", "note": "[ATP]", "values": [{"measurement": "Kd", "result": "667 ± 211", "unit": "µM"}]}
